Experimental data as given in patent US20020142996A1, “Use of bisphosphonic acids for treating angiogenesis” (priority 1999, published 2002).
Like-named read-outs stand apart in the source and are kept apart here.

How the values were obtained:
[1] = tested on: bFGF induced angiogenesis; assay: Growth factor impregnated subcutaneous chamber implant angiogenesis model in mice (bFGF); assay type: in vivo; conditions: 1, 10 and 100 μg/kg/day s.c., chambers removed 5 days after implantation
Procedure: (§1) Effect of Zoledronic Acid on Angiogenesis Induced by Growth Factor Impregnated, Subcutaneous Implants in Mice
(§2) Female mice (Tiflbm:MAG ) weighing 17 to 20 g were used. They were identified via ear markings and kept in groups (6 animals per cage) under normal conditions and observed daily. Six mice were used per treatment group in each experiment. All experiments were performed at least twice.
(§3) Porous tissue chambers made of perfluoro-alkoxy-Teflon (Teflon®-PFA, 21 mm×8 mm diameter, 550 μl volume) and perforated with 80 regularly spaced 0.8 mm holes were used. Both ends were sealed with removable caps of the same material. Four to six chambers were inserted in a silicon tube (12 mm diameter). […]
(§4) Five days after implantation, animals were anaesthetized (3% isoflurane) and sacrificed using an overdose of pentobarbitone (210 mg/kg i.p., Vetanarcol, Veterinaria AG, Zürich, Switzerland). Chambers were then taken out of the animal, the vascularized fibrous tissue that had formed around each implant was carefully removed, weighed and the total amount of blood was quantified by colorimetric determination of the haemoglobin concentration.
(§5) After addition of 2 ml of distilled water, tissue samples were homogenised for 1 min at 24000 rpm (Ultra Turrax T25). […] The absorbance at 540 mn (Uvikon 810 P) is proportional to the haemoglobin concentration. […]

[2] = tested on: VEGF induced angiogenesis; assay: Growth factor impregnated subcutaneous chamber implant angiogenesis model in mice (VEGF); assay type: in vivo; conditions: highest dose tested, 100 μg/kg/day s.c.
Procedure: as §1, §2, §3, §4, §5

[3] = tested on: Human umbilical vein endothelial cells (HUVEC); assay: cells
[4] = tested on: human tumour cell line A431 (epithelial carcinoma); assay: Tumour cell proliferation assay (methylene blue)
HUVEC = assay: Endothelial cell migration assay
[5] = tested on: Human umbilical vein endothelial cells (HUVEC); conditions: 30 μM

## O=P(O)(O)C(O)(Cn1ccnc1)P(=O)(O)O [Zoledronic acid, 1-hydroxy-2-(imidazol-1-yl)ethane-1,1-diphosphonic acid]
[1]; blood content
  approximate IC50, inhibition of bFGF-induced angiogenic response measured by blood content: ~3.1 µg/kg
[1]; tissue weight
  approximate IC50, inhibition of bFGF-induced angiogenic response measured by weight: ~2.5 µg/kg
[2]
  inhibition of the VEGF-induced increase in blood content: significant inhibition
  inhibition of the VEGF-induced increase in weight: not in weight

## O=P(O)(O)C(O)(Cn1ccnc1)P(=O)(O)O [Zoledronate, 1-hydroxy-2-(imidazol-1-yl)ethane-1,1-diphosphonic acid]
[3]; read-out: IC50, VEGF-induced HUVEC proliferation
  IC50: 6.9 ± 0.4 µM
[3]; read-out: IC50, bFGF-induced HUVEC proliferation
  IC50: 4.2 ± 0.4 µM
[3]; read-out: IC50, serum-induced HUVEC proliferation
  IC50: 4.1 ± 0.6 µM
[4]; Homo sapiens, A-431, 72 h, read-out: IC50, proliferation of A431
  IC50: 1.35 µM
HUVEC; 30 μM
  effect on HUVEC migration: completely inhibited
HUVEC; concentrations of up to 10 μM, basal medium, serum or VEGF
  effect on HUVEC migration: stimulated HUVEC migration

## O=C(O)CN(CCN(CC(=O)O)CC(=O)O)CC(=O)O [EDTA]
[5]; FCS
  inhibition of HUVEC proliferation induced by FCS: 23.7%
[5]; VEGF
  inhibition of HUVEC proliferation induced by VEGF: 55.6%
[5]; bFGF
  inhibition of HUVEC proliferation induced by bFGF: 49.5%
[4]; 30 μM
  inhibition of A431 proliferation: 8.8%
[4]; tested dose range
  effect on A431 proliferation in the tested dose range: no significant effect
HUVEC
  effect on HUVEC migration: no consistent effects
